In US9023865B2, “Compounds that are ERK inhibitors” (Merck Sharp & Dohme Corp., priority 2011, dated 2015):

molecular target: Active Human ERK2 (hERK2) (Homo sapiens (Human), UniProt P28482); assay: Active Human ERK2 (hERK2) Activity Assay (IMAP-FP); type: biochemical; conditions: phosphorylated active hERK2, 30 μM ATP; average; read-out: ERK 2 Human average IC50
In short: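 Reaction contains 0.5 nM activated hERK2, 900 nM unlabeled plus 80 nM labeled peptide and 30 μM ATP, run 60 min. Quenched with IMAP binding beads in buffer with 24 mM NaCl; fluorescence polarization read after 60 min binding equilibration.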

Chain of Active Human ERK2 (hERK2) (P28482 whole entry): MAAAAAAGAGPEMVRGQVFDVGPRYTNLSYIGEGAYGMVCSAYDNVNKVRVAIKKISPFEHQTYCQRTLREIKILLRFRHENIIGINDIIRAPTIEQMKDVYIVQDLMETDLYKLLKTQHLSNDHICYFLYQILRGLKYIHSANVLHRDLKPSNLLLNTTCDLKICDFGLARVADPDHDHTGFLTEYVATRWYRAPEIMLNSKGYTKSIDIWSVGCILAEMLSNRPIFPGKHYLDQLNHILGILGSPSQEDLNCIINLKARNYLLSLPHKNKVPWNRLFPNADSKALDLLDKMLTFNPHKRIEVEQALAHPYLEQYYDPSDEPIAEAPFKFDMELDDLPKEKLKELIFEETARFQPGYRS

| SMILES | IC50 [nM] |
| --- | --- |
| Cc1cc(-c2n[nH]c3cc(NC(=O)NC4CCc5cccnc5C4)ncc23)ccn1 (stereo not shown) [Example 505] | 0.865 |
| Cc1cc(-c2n[nH]c3cc(NC(=O)NC4CCc5[nH]ncc5C4)ncc23)ccn1 (stereo not shown) [Example 506] | 0.805 |
| Cc1cc(-c2n[nH]c3cc(NC(=O)NCc4ccc[n+]([O-])c4)ncc23)ccn1 [Example 508] | 11.6 |
| Cc1cc(-c2n[nH]c3cc(NC(=O)NCc4c(C)cc(Cl)cc4Cl)ncc23)ccn1 [Example 514] | 2.87 |
| Cc1cc(-c2n[nH]c3cc(NC(=O)NCc4ccc(Cl)cc4C)ncc23)ccn1 [Example 515] | 2.45 |
| Cc1cc(-c2n[nH]c3cc(NC(=O)NCc4ncc(F)cc4Cl)ncc23)ccn1 [Example 517] | 0.761 |
| COc1cc(F)ccc1CNC(=O)Nc1cc2[nH]nc(-c3ccnc(C)c3)c2cn1 [Example 520] | 0.44 |
| Cc1cc(-c2n[nH]c3cc(NC(=O)NC(CN)c4ccc(F)cc4)ncc23)ccn1 (stereo not shown) [Example 522] | 0.357 |
| Cc1cc(-c2n[nH]c3cc(NC(=O)NCc4ccccc4OCC(F)F)ncc23)ccn1 [Example 525] | 0.358 |
| Cc1cc(-c2n[nH]c3cc(NC(=O)N[C@H](C)c4ccc(C(F)(F)F)nc4)ncc23)ccn1 [Example 527] | 567 |
| Cc1cc(-c2n[nH]c3cc(NC(=O)NC(C)C4CCOC4)ncc23)ccn1 (stereo not shown) [Example 528] | 12.7 |
| COc1ccccc1CNC(=O)Nc1cc2[nH]nc(-c3ccnc(C)c3)c2cn1 [Example 529] | 0.293 |
| Cc1cc(-c2n[nH]c3cc(NC(=O)NC4c5ccccc5OC(C)(C)C4O)ncc23)ccn1 (stereo not shown) [Example 530] | 53.5 |
| Cc1cc(-c2n[nH]c3cc(NC(=O)NC4CCOc5ccccc54)ncc23)ccn1 (stereo not shown) [Example 532] | 3.52 |
| Cc1cc(-c2n[nH]c3c(F)c(NC(=O)N[C@H](C)c4ccc(Cl)cc4)ncc23)ccn1 [Example 534] | 0.509 |
| C[C@@H](NC(=O)Nc1ncc2c(-c3ccnc(F)c3)n[nH]c2c1F)c1ccccc1 [Example 539] | 0.728 |
| C[C@@H](NC(=O)Nc1ncc2c(C#N)n[nH]c2c1F)c1ccccc1 [Example 540] | 946 |
| COC[C@@H](NC(=O)Nc1ncc2c(-c3ccnc(F)c3)n[nH]c2c1F)c1ccccc1 [Example 543] | 0.272 |
| Cc1cc(-c2n[nH]c3c(F)c(NC(=O)N[C@H](CO)c4ccccc4)ncc23)ccn1 [Example 544] | 1.28 |
| O=C(Nc1cc2[nH]nc(-c3ccncc3)c2cn1)N[C@H](CO)c1ccccc1 [Example 546] | 0.358 |

| SMILES | IC50 [nM] |
| --- | --- |
| COC[C@@H](NC(=O)Nc1ncc2c(-c3ccncc3)n[nH]c2c1F)c1ccccc1 [Example 547] | 0.184 |
| O=C(Nc1ncc2c(-c3ccncc3)n[nH]c2c1F)N[C@H](CO)c1ccccc1 [Example 548] | 0.315 |
| Cc1cc(-c2n[nH]c3cc(NC(=O)NC[C@H]4COCCO4)ncc23)ccn1 [Example 549] | 2.62 |
| Cc1cc(-c2n[nH]c3cc(NC(=O)NC[C@@H]4COCCO4)ncc23)ccn1 [Example 550] | 2.43 |
| Cc1cc(-c2n[nH]c3cc(NC(=O)N[C@H](c4ccccc4)[C@H]4CCCO4)ncc23)ccn1 [Example 551] | 41.2 |
| Cc1cc(-c2n[nH]c3cc(NC(=O)N[C@H](c4ccccc4)[C@@H]4CCCO4)ncc23)ccn1 [Example 552] | 23.8 |
| Cc1cc(-c2n[nH]c3cc(NC(=O)N[C@@H](c4ccccc4)[C@H]4CCCO4)ncc23)ccn1 [Example 553] | 0.26 |
| Cc1cc(-c2n[nH]c3cc(NC(=O)N[C@@H](c4ccccc4)[C@@H]4CCCO4)ncc23)ccn1 [Example 554] | 0.262 |
| Cc1cc(-c2n[nH]c3cc(NC(=O)N[C@H]4[C@H](c5ccccc5C)CN(C)[C@H]4C)ncc23)ccn1 [Example 555] | 0.426 |
| Cc1cc(-c2n[nH]c3cc(NC(=O)NC(C)c4nnco4)ncc23)ccn1 (stereo not shown) [Example 556] | 232 |
| C[C@@H](NC(=O)Nc1cc2[nH]nc(C(N)C(F)(F)F)c2cn1)c1ccccc1 (stereo partly drawn) [Example 563, 1-(3-(1-amino-2,2,2-trifluoroethyl)-1H-pyrazolo[4,3-c]pyridin-6-yl)-3-((R)-1-phenylethyl)urea] | 251 |
| Cc1cc(-c2n[nH]c3cc(NC(=O)N[C@H]4CN(C)[C@@H](C(F)F)[C@@H]4c4ccccc4)ncc23)ccn1 [Example 567] | 0.441 |
| Cc1cc(-c2n[nH]c3cc(NC(=O)N[C@@H]4[C@@H](c5ccccc5)CN(C)[C@@H]4C)ncc23)ccn1 [Example 568] | 0.479 |
| Cc1cc(-c2n[nH]c3cc(NC(=O)N[C@H]4CN(C)[C@H](C(F)F)[C@@H]4c4ccccc4)ncc23)ccn1 [Example 569] | 1.48 |
| Cc1cc(-c2n[nH]c3c(Cl)c(NC(=O)N[C@H](C)c4ccccc4)ncc23)ccn1 [Example 571, (R)-1-(7-chloro-3-(2-methylpyridin-4-yl)-1H-pyrazolo[4,3-c]pyridin-6-yl)-3-(1-phenylethyl)urea] | 3.07 |
| CCCNC(=O)Nc1cc2[nH]nc(-c3ccnc(C)c3)c2cn1 [Example 572] | 1.62 |
| Cc1cc(-c2n[nH]c3cc(NC(=O)N[C@H](C)C4CCCCC4)ncc23)ccn1 [Example 575] | 1.2 |
| Cc1cc(-c2n[nH]c3cc(NC(=O)NC4CCOC4)ncc23)ccn1 (stereo not shown) [Example 577] | 4 |
| Cc1cc(-c2n[nH]c3cc(NC(=O)NCC4CCCCC4)ncc23)ccn1 [Example 578] | 0.561 |
| Cc1cc(-c2n[nH]c3cc(NC(=O)N[C@@H]4CN(C)C[C@H]4c4cccc(Cl)c4)ncc23)ccn1 [Example 581] | 0.233 |

Other lines, results leading:

| IC50 [nM] | SMILES |
| --- | --- |
| 1.36 | Cc1cc(-c2n[nH]c3cc(NC(=O)NC4CCc5nc(N)sc5C4)ncc23)ccn1 (stereo not shown) [Example 504] |
| 0.762 | Cc1cc(-c2n[nH]c3cc(NC(=O)NC4CCc5[nH]nc(C)c5C4)ncc23)ccn1 (stereo not shown) [Example 507] |
| 3.07 | Cc1cc(-c2n[nH]c3cc(NC(=O)NC(c4cccnc4)C(F)F)ncc23)ccn1 (stereo not shown) [Example 509] |
| 3.66 | Cc1cc(-c2n[nH]c3cc(NC(=O)NCc4cnccc4C(F)(F)F)ncc23)ccn1 [Example 510] |
| 2.94 | Cc1cc(-c2n[nH]c3cc(NC(=O)NCc4ccc(F)cc4C(F)(F)F)ncc23)ccn1 [Example 512] |
| 1.56 | Cc1cc(-c2n[nH]c3cc(NC(=O)NCc4ccc(F)cc4F)ncc23)ccn1 [Example 513] |
| 2.35 | Cc1cc(-c2n[nH]c3cc(NC(=O)NCc4ccc(F)cn4)ncc23)ccn1 [Example 516] |
| 5.18 | CNC(=O)c1cc(F)ccc1CNC(=O)Nc1cc2[nH]nc(-c3ccnc(C)c3)c2cn1 [Example 518] |
| 0.962 | Cc1cc(-c2n[nH]c3cc(NC(=O)NCc4c(F)cc(F)cc4F)ncc23)ccn1 [Example 519] |
| 3.31 | Cc1cc(-c2n[nH]c3cc(NC(=O)NCc4ccc(Cl)cc4F)ncc23)ccn1 [Example 521] |
| 0.605 | Cc1cc(-c2n[nH]c3cc(NC(=O)NCc4ccccc4OC(F)(F)F)ncc23)ccn1 [Example 523] |
| 2.39 | Cc1cc(-c2n[nH]c3cc(NC(=O)NC(C)c4ccccc4OC(F)(F)F)ncc23)ccn1 (stereo not shown) [Example 524] |
| 0.546 | CCOc1ncccc1CNC(=O)Nc1cc2[nH]nc(-c3ccnc(C)c3)c2cn1 [Example 526] |
| 0.545 | Cc1cc(-c2n[nH]c3cc(NC(=O)N[C@@H](c4ccccc4)C4(O)CCCC4)ncc23)ccn1 [Example 531] |
| 1.14 | Cc1cc(-c2n[nH]c3c(F)c(NC(=O)NCc4ccccc4)ncc23)ccn1 [Example 536] |
| 66.6 | C[C@@H](NC(=O)Nc1cc2[nH]nc(C#N)c2cn1)c1ccccc1 [Example 537, (R)-1-(3-cyano-1H-pyrazolo[4,3-c]pyridin-6-yl)-3-(1-phenylethyl)urea] |
| 0.298 | COC[C@@H](NC(=O)Nc1cc2[nH]nc(-c3ccnc(C)c3)c2cn1)c1ccccc1 [Example 538] |

| IC50 [nM] | SMILES |
| --- | --- |
| 0.269 | COC[C@@H](NC(=O)Nc1ncc2c(-c3ccnc(C)c3)n[nH]c2c1F)c1ccccc1 [Example 542] |
| 0.236 | COC[C@@H](NC(=O)Nc1cc2[nH]nc(-c3ccncc3)c2cn1)c1ccccc1 [Example 545] |
| 1.86 | CN1C[C@@H](NC(=O)Nc2cc3[nH]nc(-c4ccc(F)cc4)c3cn2)[C@H](c2ccccc2)C12COC2 [Example 557] |
| 14.5 | C[C@@H](NC(=O)Nc1cc2[nH]nc(CC#N)c2cn1)c1ccccc1 [Example 559, (R)-1-(3-(cyanomethyl)-1H-pyrazolo[4,3-c]pyridin-6-yl)-3-(1-phenylethyl)urea] |
| 81.7 | C[C@@H](NC(=O)Nc1cc2[nH]nc(CS(C)(=O)=O)c2cn1)c1ccccc1 [Example 560] |
| 15 | C[C@@H](NC(=O)Nc1cc2[nH]nc(CNCC(F)(F)F)c2cn1)c1ccccc1 [Example 561] |
| 25.3 | C[C@@H](NC(=O)Nc1cc2[nH]nc(CNCC(F)F)c2cn1)c1ccccc1 [Example 562] |
| 50 | CNC(c1n[nH]c2cc(NC(=O)N[C@H](C)c3ccccc3)ncc12)C(F)(F)F (stereo partly drawn) [Example 564, 1-((R)-1-phenylethyl)-3-(3-(2,2,2-trifluoro-1-(methylamino)ethyl)-1H-pyrazolo[4,3-c]pyridin-6-yl)urea] |
| 0.313 | Cc1cc(-c2n[nH]c3cc(NC(=O)NC(CS(C)(=O)=O)c4ccccc4)ncc23)ccn1 (stereo not shown) [Example 566] |
| 0.257 | CSC[C@@H](NC(=O)Nc1cc2[nH]nc(-c3ccnc(C)c3)c2cn1)c1ccccc1 [Example 570] |
| 7.22 | Cc1cc(-c2n[nH]c3cc(NC(=O)NCCO)ncc23)ccn1 [Example 573] |
| 1.41 | Cc1cc(-c2n[nH]c3cc(NC(=O)NCC4CCC4)ncc23)ccn1 [Example 574] |
| 2450 | Cc1cc(-c2n[nH]c3cc(NC(=O)N(C)C4CCCCC4)ncc23)ccn1 [Example 576] |
| 10.6 | Cc1cc(-c2n[nH]c3cc(NC(=O)NC4CCNC4)ncc23)ccn1 (stereo not shown) [Example 579] |
| 0.193 | Cc1cc(-c2n[nH]c3cc(NC(=O)N[C@@H]4COC[C@H]4c4ccccc4)ncc23)ccn1 [Example 580] |
| 0.234 | Cc1cc(-c2n[nH]c3cc(NC(=O)N[C@@H]4CN(C)C[C@H]4c4ccccc4)ncc23)ccn1 [Example 582] |
